ChEMBL document CHEMBL1201862, “PubChem BioAssay data set” (2004)
The source made the active and inactive calls.

Legend:
[1] = molecular target: Serine/threonine-protein phosphatase PP1-alpha catalytic subunit (Homo sapiens, UniProt P62136); assay: PP1 phosphatase inhibitors, dose response, biochemical, fluorescence (AID 2403);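 further: phosphatase turnover of OMFP into fluorescent 3-O-methylfluorescein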
[2] = molecular target: T1, Serine/threonine-protein phosphatase (Homo sapiens, UniProt Q9BPW0); assay: Counterscreen for inhibitors of PP1: fluorescence-based biochemical high throughput dose response assay to identify inhibitors of Protein Phosphatase 5 (PP5). [Related pubchem assays: 2034 (Summary (PP5 inhibitors)), 1987 (PP5 inhibitors in singlate), 2235 (PP1 inhibitors in singlate)]
T1 sequence (Q9BPW0 whole entry): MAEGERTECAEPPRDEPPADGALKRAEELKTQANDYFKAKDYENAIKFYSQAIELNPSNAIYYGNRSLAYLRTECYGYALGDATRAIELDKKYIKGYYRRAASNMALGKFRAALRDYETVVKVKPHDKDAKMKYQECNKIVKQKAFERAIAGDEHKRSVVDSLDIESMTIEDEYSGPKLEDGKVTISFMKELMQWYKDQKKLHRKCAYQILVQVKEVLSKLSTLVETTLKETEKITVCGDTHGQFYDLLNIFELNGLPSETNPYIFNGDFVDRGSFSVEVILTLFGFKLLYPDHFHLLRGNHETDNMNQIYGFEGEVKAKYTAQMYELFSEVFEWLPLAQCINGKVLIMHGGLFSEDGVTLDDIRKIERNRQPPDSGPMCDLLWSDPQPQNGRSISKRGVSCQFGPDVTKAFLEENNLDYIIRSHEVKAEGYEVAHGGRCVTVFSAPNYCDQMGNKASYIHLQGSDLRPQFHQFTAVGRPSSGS

[3] = molecular target: Peroxisome proliferator-activated receptor gamma/Nuclear receptor coactivator 1 (Homo sapiens, UniProt P37231); assay: (§1) TR-FRET dose response biochemical High Throughput Screening assay for agonists of the steroid receptor coactivator 1 (SRC-1) recruitment by the peroxisome proliferator-activated receptor gamma (PPAR gamma): non-selective agonists. [Related pubchem assays (depositor defined):AID1300, AID1808, AID504735, AID631]; format: protein assay
[4] = molecular target: Peroxisome proliferator-activated receptor gamma/Nuclear receptor coactivator 3 (Homo sapiens, UniProt P37231); assay: as §1, with “3 (SRC-3)” for “1 (SRC-1)”, “assays: 1301 (Confirmation screen.), 1048 (Primary screen.)]” for “assays (depositor defined):AID1300, AID1808, AID504735, AID631]”; format: functional
Chain of Peroxisome proliferator-activated receptor gamma/Nuclear receptor coactivator 3 (P37231 whole entry): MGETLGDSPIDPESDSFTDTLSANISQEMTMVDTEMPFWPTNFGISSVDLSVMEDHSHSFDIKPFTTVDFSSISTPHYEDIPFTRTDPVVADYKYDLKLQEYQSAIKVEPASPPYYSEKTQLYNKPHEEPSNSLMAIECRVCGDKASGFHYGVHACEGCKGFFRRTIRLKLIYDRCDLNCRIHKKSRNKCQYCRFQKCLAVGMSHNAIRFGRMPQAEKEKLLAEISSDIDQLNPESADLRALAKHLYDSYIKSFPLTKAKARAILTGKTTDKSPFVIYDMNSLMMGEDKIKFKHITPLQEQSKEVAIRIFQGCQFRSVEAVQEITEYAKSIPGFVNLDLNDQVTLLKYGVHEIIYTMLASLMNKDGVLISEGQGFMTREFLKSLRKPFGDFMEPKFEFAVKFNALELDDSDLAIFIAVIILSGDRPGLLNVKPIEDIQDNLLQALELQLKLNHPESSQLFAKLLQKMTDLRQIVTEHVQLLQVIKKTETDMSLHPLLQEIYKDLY
Chain of Peroxisome proliferator-activated receptor gamma/Nuclear receptor coactivator 3 (Q9Y6Q9 whole entry, further chain): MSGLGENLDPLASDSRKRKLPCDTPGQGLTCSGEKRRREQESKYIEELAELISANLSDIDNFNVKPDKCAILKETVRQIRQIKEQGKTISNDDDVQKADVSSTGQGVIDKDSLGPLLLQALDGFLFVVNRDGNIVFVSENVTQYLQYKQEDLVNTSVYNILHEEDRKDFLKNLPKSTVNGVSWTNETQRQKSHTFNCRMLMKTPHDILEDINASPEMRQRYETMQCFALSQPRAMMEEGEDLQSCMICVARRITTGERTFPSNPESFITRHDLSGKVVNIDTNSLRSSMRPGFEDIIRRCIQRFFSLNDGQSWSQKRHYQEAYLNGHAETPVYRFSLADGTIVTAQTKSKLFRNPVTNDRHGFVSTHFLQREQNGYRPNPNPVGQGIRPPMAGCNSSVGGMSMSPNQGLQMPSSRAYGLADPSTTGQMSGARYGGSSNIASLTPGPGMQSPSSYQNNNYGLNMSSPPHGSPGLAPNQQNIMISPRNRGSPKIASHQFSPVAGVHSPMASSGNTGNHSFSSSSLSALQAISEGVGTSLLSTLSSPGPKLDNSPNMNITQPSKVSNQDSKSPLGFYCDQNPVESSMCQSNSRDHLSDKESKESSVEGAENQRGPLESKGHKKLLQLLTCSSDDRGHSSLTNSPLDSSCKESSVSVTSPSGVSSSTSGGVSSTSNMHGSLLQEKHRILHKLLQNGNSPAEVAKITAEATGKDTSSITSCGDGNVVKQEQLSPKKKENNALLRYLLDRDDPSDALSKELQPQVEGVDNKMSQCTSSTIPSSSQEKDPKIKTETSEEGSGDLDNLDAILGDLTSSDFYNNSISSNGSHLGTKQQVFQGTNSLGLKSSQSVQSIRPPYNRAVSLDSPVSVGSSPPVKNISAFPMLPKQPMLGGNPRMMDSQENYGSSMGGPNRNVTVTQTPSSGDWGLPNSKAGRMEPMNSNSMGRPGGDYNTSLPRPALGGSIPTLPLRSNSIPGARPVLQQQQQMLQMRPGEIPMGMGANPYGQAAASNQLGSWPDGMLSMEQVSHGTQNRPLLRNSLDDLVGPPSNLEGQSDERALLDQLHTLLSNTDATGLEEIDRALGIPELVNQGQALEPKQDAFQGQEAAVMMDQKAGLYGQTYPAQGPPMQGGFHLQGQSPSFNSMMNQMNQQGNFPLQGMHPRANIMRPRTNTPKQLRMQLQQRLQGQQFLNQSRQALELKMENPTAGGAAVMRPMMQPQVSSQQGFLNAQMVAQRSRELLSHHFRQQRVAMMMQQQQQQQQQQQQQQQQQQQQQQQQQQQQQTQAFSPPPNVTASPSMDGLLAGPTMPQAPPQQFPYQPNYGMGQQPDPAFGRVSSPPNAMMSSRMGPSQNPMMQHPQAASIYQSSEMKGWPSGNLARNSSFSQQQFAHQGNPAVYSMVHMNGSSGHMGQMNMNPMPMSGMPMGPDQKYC

[5] = molecular target: Peroxisome proliferator-activated receptor gamma/Nuclear receptor coactivator 2 (Homo sapiens, UniProt P37231); assay: TR-FRET dose response biochemical High Throughput Screening assay for agonists of the steroid receptor coactivator 2 (SRC-2) recruitment by the peroxisome proliferator-activated receptor gamma (PPAR gamma): non-selective agonists. [Related pubchem assays: 1297, 1032 ]; format: functional
Chain of Peroxisome proliferator-activated receptor gamma/Nuclear receptor coactivator 2 (P37231 whole entry): as the sequence (P37231 whole entry) above
Chain of Peroxisome proliferator-activated receptor gamma/Nuclear receptor coactivator 2 (Q15596 whole entry, further chain): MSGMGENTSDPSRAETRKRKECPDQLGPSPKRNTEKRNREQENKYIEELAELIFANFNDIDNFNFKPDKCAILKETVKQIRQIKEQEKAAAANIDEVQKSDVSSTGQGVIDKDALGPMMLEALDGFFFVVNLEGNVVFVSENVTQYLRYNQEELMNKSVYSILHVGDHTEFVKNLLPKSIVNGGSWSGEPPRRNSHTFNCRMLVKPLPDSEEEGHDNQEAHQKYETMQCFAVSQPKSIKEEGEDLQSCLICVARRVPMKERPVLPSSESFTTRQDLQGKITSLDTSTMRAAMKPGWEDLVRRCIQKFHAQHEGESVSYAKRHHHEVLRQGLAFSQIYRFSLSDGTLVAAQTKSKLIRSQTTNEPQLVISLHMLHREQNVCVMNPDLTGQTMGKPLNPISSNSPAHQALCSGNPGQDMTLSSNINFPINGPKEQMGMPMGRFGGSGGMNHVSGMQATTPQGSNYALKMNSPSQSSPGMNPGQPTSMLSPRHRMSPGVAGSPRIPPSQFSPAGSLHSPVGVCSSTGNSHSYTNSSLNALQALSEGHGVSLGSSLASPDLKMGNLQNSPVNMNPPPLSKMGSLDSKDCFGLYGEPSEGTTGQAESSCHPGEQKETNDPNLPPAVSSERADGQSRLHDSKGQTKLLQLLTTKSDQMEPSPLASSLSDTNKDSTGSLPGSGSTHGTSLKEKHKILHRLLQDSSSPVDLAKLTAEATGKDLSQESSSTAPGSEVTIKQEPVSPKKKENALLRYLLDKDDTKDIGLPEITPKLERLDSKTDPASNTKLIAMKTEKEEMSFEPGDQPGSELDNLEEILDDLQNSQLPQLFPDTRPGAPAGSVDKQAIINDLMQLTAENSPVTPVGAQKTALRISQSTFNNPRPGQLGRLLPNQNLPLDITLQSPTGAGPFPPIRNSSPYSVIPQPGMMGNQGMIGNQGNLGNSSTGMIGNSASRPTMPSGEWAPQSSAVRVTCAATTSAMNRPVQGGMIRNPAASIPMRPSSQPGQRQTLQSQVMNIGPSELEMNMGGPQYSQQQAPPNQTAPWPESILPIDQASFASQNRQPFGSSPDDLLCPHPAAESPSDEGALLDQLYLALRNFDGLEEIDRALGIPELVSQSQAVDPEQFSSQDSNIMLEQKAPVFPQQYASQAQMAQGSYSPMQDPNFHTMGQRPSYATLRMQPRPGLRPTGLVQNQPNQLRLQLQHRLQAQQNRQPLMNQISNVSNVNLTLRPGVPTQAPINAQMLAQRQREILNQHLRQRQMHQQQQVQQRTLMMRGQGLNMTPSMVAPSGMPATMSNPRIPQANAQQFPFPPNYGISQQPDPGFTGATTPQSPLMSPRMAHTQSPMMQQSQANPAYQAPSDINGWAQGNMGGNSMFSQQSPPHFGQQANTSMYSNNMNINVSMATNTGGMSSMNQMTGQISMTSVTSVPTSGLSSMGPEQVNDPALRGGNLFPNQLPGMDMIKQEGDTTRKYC

[6] = molecular target: Glyceraldehyde-3-phosphate dehydrogenase (Homo sapiens, UniProt P04406)
Chain of Glyceraldehyde-3-phosphate dehydrogenase (P04406 whole entry): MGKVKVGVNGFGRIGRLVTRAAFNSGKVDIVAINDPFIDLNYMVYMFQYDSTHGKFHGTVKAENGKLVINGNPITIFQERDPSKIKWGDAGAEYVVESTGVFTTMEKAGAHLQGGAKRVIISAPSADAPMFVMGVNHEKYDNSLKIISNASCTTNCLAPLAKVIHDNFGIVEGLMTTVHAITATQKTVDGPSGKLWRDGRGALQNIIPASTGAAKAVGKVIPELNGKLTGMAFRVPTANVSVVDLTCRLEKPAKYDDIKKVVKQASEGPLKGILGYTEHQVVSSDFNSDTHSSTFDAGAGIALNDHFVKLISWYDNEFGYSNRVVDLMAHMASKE

[7] = molecular target: T2, Alkaline phosphatase, tissue-nonspecific isozyme (Homo sapiens, UniProt P05186); assay: human TNAP enzyme inhibitors, SAR follow-up, biochemical, luminescent, dose response (AID 1056)
T2 sequence (P05186 whole entry): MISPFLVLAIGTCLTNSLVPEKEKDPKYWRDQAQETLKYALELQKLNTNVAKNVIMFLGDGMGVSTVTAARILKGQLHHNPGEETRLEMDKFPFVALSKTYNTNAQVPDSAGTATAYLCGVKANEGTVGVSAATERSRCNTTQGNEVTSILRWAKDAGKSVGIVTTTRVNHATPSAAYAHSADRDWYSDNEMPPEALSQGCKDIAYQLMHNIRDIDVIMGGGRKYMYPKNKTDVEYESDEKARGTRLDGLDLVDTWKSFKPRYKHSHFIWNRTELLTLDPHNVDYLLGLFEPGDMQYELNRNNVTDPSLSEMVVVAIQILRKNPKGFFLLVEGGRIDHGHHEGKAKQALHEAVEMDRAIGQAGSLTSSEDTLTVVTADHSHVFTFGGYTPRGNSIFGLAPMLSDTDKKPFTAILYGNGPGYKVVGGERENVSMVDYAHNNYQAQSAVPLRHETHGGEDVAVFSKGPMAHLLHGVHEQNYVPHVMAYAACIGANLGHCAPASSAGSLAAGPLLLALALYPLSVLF

[8] = molecular target: T3, Bcl-2-related protein A1 (Mus musculus, UniProt Q07440); format: functional;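 further: confirmatory dose–response counterscreen on Bfl-1, used to check hits from a UBC13 polyubiquitin inhibitor campaign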
T3 sequence (Q07440 whole entry): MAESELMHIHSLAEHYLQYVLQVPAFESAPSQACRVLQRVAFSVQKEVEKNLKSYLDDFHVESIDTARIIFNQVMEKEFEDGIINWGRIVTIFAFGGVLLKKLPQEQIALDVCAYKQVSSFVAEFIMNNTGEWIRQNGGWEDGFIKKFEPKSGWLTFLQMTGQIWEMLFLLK

[9] = molecular target: T4, Ubiquitin-conjugating enzyme E2 N (Homo sapiens, UniProt P61088); format: functional
T4 sequence (P61088 whole entry): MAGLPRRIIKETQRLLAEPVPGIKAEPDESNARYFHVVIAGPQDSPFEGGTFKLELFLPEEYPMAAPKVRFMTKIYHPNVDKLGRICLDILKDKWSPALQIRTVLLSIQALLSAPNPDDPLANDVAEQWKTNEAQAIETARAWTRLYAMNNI

[10] = molecular target: T4, Ubiquitin-conjugating enzyme E2 N; format: functional; remark: listed apart in the source
[11] = molecular target: Nonstructural protein 1 (Influenza A virus, UniProt Q194T2); format: functional, Influenza A virus (A/California/07/2009(H1N1))
Chain of Nonstructural protein 1 (Q194T2 whole entry): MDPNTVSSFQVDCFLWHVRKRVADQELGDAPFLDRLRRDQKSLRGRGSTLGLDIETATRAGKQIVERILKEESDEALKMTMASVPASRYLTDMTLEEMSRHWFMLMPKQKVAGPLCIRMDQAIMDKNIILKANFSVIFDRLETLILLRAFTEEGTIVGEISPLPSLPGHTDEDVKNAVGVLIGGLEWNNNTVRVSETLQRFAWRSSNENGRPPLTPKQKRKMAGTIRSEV

[12] = molecular target: T5, Sentrin-specific protease 8 (Homo sapiens, UniProt Q96LD8); format: functional
T5 sequence (Q96LD8 whole entry): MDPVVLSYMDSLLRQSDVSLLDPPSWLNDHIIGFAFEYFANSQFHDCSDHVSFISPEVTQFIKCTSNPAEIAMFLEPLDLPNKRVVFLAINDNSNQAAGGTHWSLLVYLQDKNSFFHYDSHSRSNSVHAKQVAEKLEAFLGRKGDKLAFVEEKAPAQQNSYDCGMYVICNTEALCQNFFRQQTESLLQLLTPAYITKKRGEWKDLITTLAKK

[13] = molecular target: T5, Sentrin-specific protease 8; format: functional; remark: listed apart in the source
[14] = molecular target: T6, DNA repair protein RAD52 homolog (Homo sapiens, UniProt P43351); format: functional, biochemical
T6 sequence (P43351 whole entry): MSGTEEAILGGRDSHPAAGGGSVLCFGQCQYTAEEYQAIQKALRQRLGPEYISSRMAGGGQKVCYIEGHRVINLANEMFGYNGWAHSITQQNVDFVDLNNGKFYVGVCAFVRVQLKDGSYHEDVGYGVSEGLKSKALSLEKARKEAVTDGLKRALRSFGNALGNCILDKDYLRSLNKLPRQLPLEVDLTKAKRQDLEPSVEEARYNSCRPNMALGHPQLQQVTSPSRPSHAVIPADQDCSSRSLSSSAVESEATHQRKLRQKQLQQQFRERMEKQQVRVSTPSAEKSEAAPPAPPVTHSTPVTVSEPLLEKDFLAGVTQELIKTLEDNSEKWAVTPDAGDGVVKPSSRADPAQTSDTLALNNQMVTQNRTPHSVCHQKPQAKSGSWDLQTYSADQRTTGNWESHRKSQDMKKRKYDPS

[15] = molecular target: T7, Coagulation factor XII (Homo sapiens, UniProt P00748); format: functional;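 further: activated factor XIIa alpha cleaving a fluorogenic AMC peptide substrate; inhibitor potency from loss of enzyme activity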
T7 sequence (P00748 whole entry): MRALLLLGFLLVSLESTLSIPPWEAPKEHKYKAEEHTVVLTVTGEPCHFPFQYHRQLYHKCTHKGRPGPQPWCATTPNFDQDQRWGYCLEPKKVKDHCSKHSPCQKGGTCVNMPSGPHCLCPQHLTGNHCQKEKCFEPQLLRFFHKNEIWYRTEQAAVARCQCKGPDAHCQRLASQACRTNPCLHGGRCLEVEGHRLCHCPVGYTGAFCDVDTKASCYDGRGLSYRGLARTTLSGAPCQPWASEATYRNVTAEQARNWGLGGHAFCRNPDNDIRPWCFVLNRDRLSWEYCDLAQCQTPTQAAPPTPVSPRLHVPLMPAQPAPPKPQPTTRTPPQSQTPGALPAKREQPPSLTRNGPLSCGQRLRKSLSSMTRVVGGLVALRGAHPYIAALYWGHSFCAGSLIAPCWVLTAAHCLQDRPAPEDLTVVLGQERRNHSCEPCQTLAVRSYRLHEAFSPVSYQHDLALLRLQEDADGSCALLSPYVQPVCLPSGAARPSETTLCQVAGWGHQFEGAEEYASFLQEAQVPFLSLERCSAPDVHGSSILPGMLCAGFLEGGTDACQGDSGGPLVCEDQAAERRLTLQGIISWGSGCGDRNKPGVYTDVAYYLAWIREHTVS

[16] = molecular target: T8, Protein Rev (Human immunodeficiency virus type 1 group M subtype B (isolate HXB2)(HIV-1), UniProt P04618); assay: inhibitors of Rev binding to RRE RNA, dose response, biochemical, fluorescence polarization, HIV-1 (AID 434976); parameters: species or system Human immunodeficiency virus 1
T8 sequence (P04618 whole entry): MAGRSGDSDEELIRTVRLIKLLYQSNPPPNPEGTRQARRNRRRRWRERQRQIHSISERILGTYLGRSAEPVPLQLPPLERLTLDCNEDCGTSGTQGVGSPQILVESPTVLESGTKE

[17] = molecular target: T9, Female germline-specific tumor suppressor gld-1 (Caenorhabditis elegans, UniProt Q17339); assay: inhibitors of GLD-1 binding to TGE RNA, dose response, biochemical, fluorescence polarization, C. elegans (AID 2802);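 further: fluorescence polarization of labeled TGE RNA bound by purified gld-1 protein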
T9 sequence (Q17339 whole entry): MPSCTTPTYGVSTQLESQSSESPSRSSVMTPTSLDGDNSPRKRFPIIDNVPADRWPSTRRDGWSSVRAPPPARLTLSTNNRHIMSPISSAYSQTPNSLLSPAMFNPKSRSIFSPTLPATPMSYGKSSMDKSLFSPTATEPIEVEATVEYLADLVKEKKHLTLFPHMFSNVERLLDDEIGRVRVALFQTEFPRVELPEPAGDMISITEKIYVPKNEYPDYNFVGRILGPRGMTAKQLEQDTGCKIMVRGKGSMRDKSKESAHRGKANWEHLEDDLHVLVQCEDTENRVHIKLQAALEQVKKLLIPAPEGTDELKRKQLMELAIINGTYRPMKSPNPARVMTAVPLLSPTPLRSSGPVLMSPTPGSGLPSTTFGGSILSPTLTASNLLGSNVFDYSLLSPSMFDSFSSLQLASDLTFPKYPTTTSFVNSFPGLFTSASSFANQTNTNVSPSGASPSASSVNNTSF

[18] = molecular target: Genome polyprotein (dengue virus type 2, UniProt P29990); assay: Dengue-2 NS5 methyltransferase inhibitors, primary screen, biochemical, confirmation dose response (AID 588689); format: functional
[19] = cytotoxicity in HEK-293T cells, dose response, cytotoxicity control for BCR NF-kB inhibitor project, luminescence, B-cell screen hits (AID 489021); format: functional, cell-based;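 further: HEK-293T cells carrying an NF-kB luciferase reporter; cells exposed to compound for about 14 hours before viability readout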
[20] = inhibitors of intracellular T. cruzi replication, confirmation, NIH3T3 host cells, beta-gal luminescence (AID 2044); format: functional, cell-based;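 further: intracellular parasites grown in NIH/3T3 mouse fibroblasts as host cells; luminescent beta-galactosidase reporter signal from transgenic T. cruzi replicating inside host cells; inhibitors lower the luminescence signal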
[21] = cytotoxicity toward NIH3T3 fibroblasts, dose response, counter-screen, cell-based, ATP luminescence, mouse fibroblasts (AID 2010); format: functional;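 further: cells exposed to compound for about 90 hours before reading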

Chain of Serine/threonine-protein phosphatase PP1-alpha catalytic subunit (P62136 whole entry): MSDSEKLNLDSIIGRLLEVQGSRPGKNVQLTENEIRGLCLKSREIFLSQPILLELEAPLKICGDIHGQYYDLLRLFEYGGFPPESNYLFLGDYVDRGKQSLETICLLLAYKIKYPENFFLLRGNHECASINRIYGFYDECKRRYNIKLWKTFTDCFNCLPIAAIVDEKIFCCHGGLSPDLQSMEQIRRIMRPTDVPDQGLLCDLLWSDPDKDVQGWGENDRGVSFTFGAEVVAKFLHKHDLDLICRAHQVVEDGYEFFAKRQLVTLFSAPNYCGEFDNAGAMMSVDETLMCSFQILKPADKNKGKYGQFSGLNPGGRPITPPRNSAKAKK

For `COc1cnc(-c2ccccn2)nc1Oc1cccc(Cl)c1`, the IC50 [1] was 8.46 µM (active) and the IC50 [2] was > 67 µM (not active).
In the case of `Cc1cc(N2C(=O)C(O)=C(C(=O)c3ccc(Cl)cc3)C2c2cccc(Br)c2)no1` (centres undefined), the EC50 [3] is reported as > 79.4 µM (inactive), the EC50 [4] is reported as > 79.4 µM (not active) and the EC50 [5] is reported as 113 µM (not active).
For `O=S(=O)(Nc1cnc2ccccc2c1)c1ccccc1`, the IC50 [6] was > 100 µM (not active) and the IC50 [7] was > 100 µM (inactive).
With `O=C1c2ccccc2C(=O)N1c1nnc(Cc2ccc(F)cc2)[nH]1` the IC50 [6] was > 100 µM (not active) and the IC50 [7] was 4.66 µM (active).
In the case of `CN1CCN(c2cc(-c3cc(O)c4ncccc4c3)ccn2)CC1`, the IC50 [8] is reported as 12.5 µM (active), the IC50 [9] is reported as 15.6 µM (active) and the IC50 [10] is reported as 10.8 µM (active). The IC50 [11] was 9.85 µM (active), the IC50 [12] was 5.17 µM (active) and the IC50 [13] was 6.88 µM (active). For the same molecule, the AC50 [14] was 1.58 µM (active).
With `COc1ccccc1CC(=O)NN1C(=O)c2ccccc2C1=O` the IC50 [15] was > 50 µM (inactive).
In the case of `Cc1ccc(C(=O)N/N=C/c2ccc(-c3ccc(Br)cc3[N+](=O)[O-])o2)o1`, the IC50 [16] is reported as > 25.1 µM (not active), the IC50 [17] is reported as 10.4 µM (inactive) and the IC50 [18] is reported as > 100 µM (active).
In the case of `Cn1c(=O)cc(SCC(=O)N2CCCC2)c2cc(Cl)ccc21`, the EC50 [3] is reported as > 79.4 µM (inactive), the EC50 [4] is reported as > 79.4 µM (not active) and the EC50 [5] is reported as > 79.4 µM (not active). The IC50 [19] was > 80 µM (inactive).
In the case of `CCCCc1nc2sc3c(SCC(=O)NCc4ccco4)ncnc3c2c2c1CCC2`, the EC50 [3] is reported as 78.6 µM (inactive), the EC50 [4] is reported as > 79.4 µM (not active) and the EC50 [5] is reported as 58.8 µM (not active).
With `CCOC(=O)c1cnc(-n2nc(C)cc2C)nc1NCCc1ccccc1` the IC50 [1] was 6.96 µM (active), the EC50 [20] was 2.04 µM (active) and the IC50 [2] was > 67 µM (not active). For the same molecule, the EC50 [21] was > 30 µM (not active).
With `CCOc1cc(CO)ccc1OCC(=O)N1CCCCC1` the IC50 [15] was > 50 µM (inactive).
For `CC(=O)Nc1nnc(S(C)(=O)=O)[nH]1`, the IC50 [6] was > 100 µM (not active) and the IC50 [7] was > 100 µM (inactive).
